Where “and” joins values, the source holds several entries; their conditions need not be identical. Identical values can stand only once.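 Cultured in 96-well plates, cells were exposed to test compound for 48 hours across five concentrations. GI50: concentration for 50% inhibition of growth. TGI marks complete inhibition of growth.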 Some results are limits rather than exact numbers.

One test deals with BT-549 breast. As to the kind of experiment: NCI tumour cell line growth inhibition, 48 h.
For `CCCCc1c(O)nc(Nc2nc3ccccc3[nH]2)[nH]c1=O`, the TGI was > 100 µM.
On the same count and under the same terms, to `Cc1c(S(=O)(=O)c2ccccc2)c(N)n(Cc2ccccc2)c1C` belongs > 100 µM; to `COC(=O)C1(Cc2ccccc2)Cc2cc3c(cc2C1=O)CCC3` (configuration not stated), > 100 µM; to `Cc1ccc(-c2cc(N)n(-c3nc4c([nH]3)c(=O)n(C)c(=O)n4C)n2)cc1`, 32.9 µM.
Same read-out and setting: to `COc1ccc(N2C(=O)C3c4[nH]c5ccc([N+](=O)[O-])cc5c4C4CCC(C(C)(C)C)CC4C3C2=O)cc1` (configuration not stated) belongs > 100 µM; to `CCOC(=O)CCC(NC(=O)c1ccc(OCc2nc3cc(C(F)(F)F)ccc3nc2-c2ccccc2)cc1)C(=O)OCC` (configuration not stated), > 100 µM.
In the case of `O=C(O)c1ccc(NC(c2ccccc2)c2ccc3cccnc3c2O)cc1` (configuration not stated), the TGI is > 74 µM.
Regarding `CC12CC(c3ccccc3O1)C(C(=O)Nc1ccc(F)cc1)C(=O)N2` (configuration not stated), the TGI is > 100 µM.
For the compound `O=c1c2c3ccccc3[nH]c2c2cccc3c2n1CCC3`, the TGI stood at 91 µM.
Turning to `COc1ccc(-c2c(C#N)c(N)n(C3OC(CO)C(O)C(O)C3O)c(=S)c2C#N)cc1` (configuration not stated), the TGI was > 100 µM.
Take `CCOC(=O)c1sc2nc(SC)nc3c2c1N=CN3c1ccc(Br)cc1`: the TGI was > 100 µM.
With `O=c1[nH]c2nc3ccccc3c(=O)n2/c1=C/c1ccc(O)cc1`, the TGI is > 100 µM.
On to `Nc1nc(Cl)cc(NCC2(CO)CC(CCc3ccccc3)C2)n1` (configuration not stated), for which the TGI is > 100 µM.
For the compound `O=c1c2ccccc2[nH]c(=S)n1-c1ccc(N=Nc2cccc3c(O)cccc23)cc1`, the TGI is > 100 µM.
Turning to `COc1ccc(-c2c(C#N)c(S)n(C3OC(COC(C)=O)C(OC(C)=O)C(OC(C)=O)C3OC(C)=O)c(=O)c2C#N)cc1` (configuration not stated), the TGI is 74.4 µM and 79 µM.
As for `C[C@]12OC[C@H](c3ccccc3)N1C(=O)C1[C@H]2CC12SCCS2` (some centres not stated), the TGI is > 100 µM.
In the case of `c1sc(NC2=NCCO2)c2c1CCCC2`, the TGI was > 100 µM.

For another test, the system named is 786-0 renal. As to the kind of experiment: NCI tumour cell line growth inhibition, 48 h.
With `CCCCc1c(O)nc(Nc2nc3ccccc3[nH]2)[nH]c1=O`, the TGI was > 100 µM.
Take `Cc1c(S(=O)(=O)c2ccccc2)c(N)n(Cc2ccccc2)c1C`: the TGI is > 100 µM.
Regarding `COC(=O)C1(Cc2ccccc2)Cc2cc3c(cc2C1=O)CCC3` (configuration not stated), the TGI is > 100 µM.
Same read-out and setting: the result for `Cc1ccc(-c2cc(N)n(-c3nc4c([nH]3)c(=O)n(C)c(=O)n4C)n2)cc1` reads 13.6 µM; that for `COc1ccc(N2C(=O)C3c4[nH]c5ccc([N+](=O)[O-])cc5c4C4CCC(C(C)(C)C)CC4C3C2=O)cc1` (configuration not stated), 38 µM.
As to `CCOC(=O)CCC(NC(=O)c1ccc(OCc2nc3cc(C(F)(F)F)ccc3nc2-c2ccccc2)cc1)C(=O)OCC` (configuration not stated), the TGI was > 100 µM.
Turning to `O=C(O)c1ccc(NC(c2ccccc2)c2ccc3cccnc3c2O)cc1` (configuration not stated), the TGI is > 76.6 µM.
On to `CC12CC(c3ccccc3O1)C(C(=O)Nc1ccc(F)cc1)C(=O)N2` (configuration not stated), for which the TGI is > 100 µM.
Consider `O=c1c2c3ccccc3[nH]c2c2cccc3c2n1CCC3`, for which the TGI was > 100 µM.
Still for that read-out and setting: to `COc1ccc(-c2c(C#N)c(N)n(C3OC(CO)C(O)C(O)C3O)c(=S)c2C#N)cc1` (configuration not stated) belongs > 100 µM; to `CCOC(=O)c1sc2nc(SC)nc3c2c1N=CN3c1ccc(Br)cc1`, > 100 µM.
For the compound `O=c1[nH]c2nc3ccccc3c(=O)n2/c1=C/c1ccc(O)cc1`, the TGI was > 100 µM.
Still for that read-out and setting: the result for `Nc1nc(Cl)cc(NCC2(CO)CC(CCc3ccccc3)C2)n1` (configuration not stated) reads > 100 µM; that for `O=c1c2ccccc2[nH]c(=S)n1-c1ccc(N=Nc2cccc3c(O)cccc23)cc1`, > 100 µM; that for `COc1ccc(-c2c(C#N)c(S)n(C3OC(COC(C)=O)C(OC(C)=O)C(OC(C)=O)C3OC(C)=O)c(=O)c2C#N)cc1` (configuration not stated), > 100 µM and 80.9 µM.
On the same count and under the same terms, to `C[C@]12OC[C@H](c3ccccc3)N1C(=O)C1[C@H]2CC12SCCS2` (some centres not stated) belongs > 100 µM; to `c1sc(NC2=NCCO2)c2c1CCCC2`, > 100 µM.

In another test the test system is SK-MEL-28 melanoma. As to the kind of experiment: NCI tumour cell line growth inhibition, 48 h.
In the case of `CCCCc1c(O)nc(Nc2nc3ccccc3[nH]2)[nH]c1=O`, the TGI was > 100 µM.
Turning to `Cc1c(S(=O)(=O)c2ccccc2)c(N)n(Cc2ccccc2)c1C`, the TGI is > 100 µM.
Same read-out and setting: to `COC(=O)C1(Cc2ccccc2)Cc2cc3c(cc2C1=O)CCC3` (configuration not stated) belongs > 100 µM; to `Cc1ccc(-c2cc(N)n(-c3nc4c([nH]3)c(=O)n(C)c(=O)n4C)n2)cc1`, 94.8 µM; to `COc1ccc(N2C(=O)C3c4[nH]c5ccc([N+](=O)[O-])cc5c4C4CCC(C(C)(C)C)CC4C3C2=O)cc1` (configuration not stated), > 100 µM.
With `CCOC(=O)CCC(NC(=O)c1ccc(OCc2nc3cc(C(F)(F)F)ccc3nc2-c2ccccc2)cc1)C(=O)OCC` (configuration not stated), the TGI is > 100 µM.
In the case of `O=C(O)c1ccc(NC(c2ccccc2)c2ccc3cccnc3c2O)cc1` (configuration not stated), the TGI is > 100 µM.
For `CC12CC(c3ccccc3O1)C(C(=O)Nc1ccc(F)cc1)C(=O)N2` (configuration not stated), the TGI is > 100 µM.
As for `O=c1c2c3ccccc3[nH]c2c2cccc3c2n1CCC3`, the TGI was > 100 µM.
On the same count and under the same terms, the result for `COc1ccc(-c2c(C#N)c(N)n(C3OC(CO)C(O)C(O)C3O)c(=S)c2C#N)cc1` (configuration not stated) reads > 100 µM; that for `CCOC(=O)c1sc2nc(SC)nc3c2c1N=CN3c1ccc(Br)cc1`, > 100 µM.
In the case of `O=c1[nH]c2nc3ccccc3c(=O)n2/c1=C/c1ccc(O)cc1`, the TGI is > 100 µM.
On the same count and under the same terms, to `Nc1nc(Cl)cc(NCC2(CO)CC(CCc3ccccc3)C2)n1` (configuration not stated) belongs > 100 µM; to `O=c1c2ccccc2[nH]c(=S)n1-c1ccc(N=Nc2cccc3c(O)cccc23)cc1`, > 100 µM.
Regarding `COc1ccc(-c2c(C#N)c(S)n(C3OC(COC(C)=O)C(OC(C)=O)C(OC(C)=O)C3OC(C)=O)c(=O)c2C#N)cc1` (configuration not stated), the GI50 is > 100 µM and 20.8 µM; the TGI was > 100 µM and 37.3 µM.
Take `C[C@]12OC[C@H](c3ccccc3)N1C(=O)C1[C@H]2CC12SCCS2` (some centres not stated): the TGI is > 100 µM.
In the case of `c1sc(NC2=NCCO2)c2c1CCCC2`, the TGI is > 100 µM.
